Results taken from US5506102A (priority 1993, dated 1996).

Tests used:
PR = conditions: cited from earlier work
[1] = system: glucocorticoid receptor (GR); test: GR transcriptional activity on MMTV-LUC, CV-1 cells, GR co-expressed with PR-B; format: cell-based; conditions: progesterone and dexamethasone, FIG. 5B
Method: (§1) Cells were seeded in 12-well, 96-well or 10 cm tissue culture plates. […] 20 μg of DNA/ml of transfection buffer were used in each transfection reaction. In this mix, the concentration of the luciferase plasmids and that of the internal control plasmid pCH110 (Pharmacia, Inc.), which contains the gene for the β-galactosidase enzyme, remained constant ([…] of each plasmid DNA), while the receptor plasmid concentration varied as indicated for each experiment. Different amounts of receptor parental plasmid, pSV2-neo (Dr. Bert O'Malley, Baylor College of Medicine, Houston, Tex.) was included to keep constant the total amount of the SV40 enhancer vectors. pGEM4 plasmid DNA (Promega Biotech, Madison, Wis.) was added to balance the total DNA concentration to 20 g/reaction. For the 96-well plate experiments, transfections were performed on a Biomek 1000 Automated Laboratory Workstation (Beckman Instruments, Fullerton, Calif.).
Cells were seeded 24 hours prior to transfection in the fiat-bottom tissue culture plates ([…]) in phenol red-free DMEM containing 10% FCS. […] Using calcium phosphate co-precipitation, DNA solution was added dropwise with vortexing into an equal volume of 2X HBS pH 6.9 (280 mM NaCl. 50 mM HEPES, 1.5 mM Na2 HPO4) and precipitates were allowed to form for 20 minutes. […]

[2] = system: PR-B (co-expressed with PR-A587); test: Repression of PR-B mediated MMTV-LUC transcription by DNA binding mutant PR-A587, CV-1 cells; format: cell-based, human; conditions: equimolar phPR-A587 and phPR-B DNA, 10^-7 M progesterone, FIG. 9
Method: The relative luciferase activity is calculated by dividing the normalized luciferase value at a given point by that obtained in the absence of transfected receptor or ligand.
as §1
Cells were seeded 24 hours prior to transfection in the fiat-bottom tissue culture plates ([…]) in phenol red-free DMEM containing 10% FCS. […]

human estrogen receptor = target: T1, human estrogen receptor (Homo sapiens, UniProt P03372); test: ER transcriptional activity on MMTV-ERE-LUC, CV-1 cells, ER alone; format: cell-based; conditions: 10^-7 M 17β-estradiol
T1 construct: expressed in transfected cells; host or cells: CV-1
T1 sequence (P03372 1-595): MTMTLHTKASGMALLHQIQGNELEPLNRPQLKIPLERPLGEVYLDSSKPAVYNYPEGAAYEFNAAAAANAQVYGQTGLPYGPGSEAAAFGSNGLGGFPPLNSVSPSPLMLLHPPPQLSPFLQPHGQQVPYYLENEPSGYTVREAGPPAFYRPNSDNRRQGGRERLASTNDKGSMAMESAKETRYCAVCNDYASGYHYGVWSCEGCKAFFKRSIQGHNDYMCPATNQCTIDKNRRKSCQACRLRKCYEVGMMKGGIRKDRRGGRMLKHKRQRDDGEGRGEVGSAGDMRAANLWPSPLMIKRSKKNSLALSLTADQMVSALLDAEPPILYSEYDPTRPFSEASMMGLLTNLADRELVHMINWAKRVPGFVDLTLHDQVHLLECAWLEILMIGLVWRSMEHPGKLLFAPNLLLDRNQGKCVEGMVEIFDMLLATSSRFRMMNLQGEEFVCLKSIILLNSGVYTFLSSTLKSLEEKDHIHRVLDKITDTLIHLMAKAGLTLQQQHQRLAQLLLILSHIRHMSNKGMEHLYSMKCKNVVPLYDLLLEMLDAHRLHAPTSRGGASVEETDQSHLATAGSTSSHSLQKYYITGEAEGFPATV
Method: All values were normalized for transfection efficiency by simultaneous estimation of luciferase and β-galactocidase activities. The relative luciferase activity is calculated by dividing the normalized luciferase value at a given point by that obtained in the absence of transfected receptor or ligand. Data shown represent the mean +/- the average deviation from the mean of triplicate estimations.
Experimental protocols and data calculation are as described in FIG. 11. The experiment detailed above is representative of independent assays (N>3). Data shown represent the mean +/- the average deviation from the mean of triplicate estimations.
Vegeto et al., supra. Cells were plated into 96-well tissue culture plates. The vector DNA was introduced into the CV-1 cells using calcium phosphate coprecipitation as described herein. More specifically, 20 μg of DNA/ml of transfection buffer were used in each transfection. […] The concentration of pXVhPR-A vector chosen was determined by performing the experiment at several different concentrations of vector, and then using that concentration that was optimal for transcriptional readout. […] The Normalized LUC activity was calculated by dividing the raw luciferase (×10^4) units for each point by the β-galactosidase activity [(OD415 nm ×10^5)/time min.] at that point.

SMILES | effect on PR DNA binding (PR) | effect of PR-B co-expression on GR function [1] | reduction of transcriptional activity of PR-B [2] [%] | direct effects on ER (human estrogen receptor)
CC#C[C@]1(O)CC[C@H]2[C@@H]3CCC4=CC(=O)CCC4=C3[C@@H](c3ccc(C(C)=O)cc3)C[C@@]21C [ZK112993] | promotes the association of PR with DNA | – | – | –
CC(=O)[C@H]1CC[C@H]2[C@@H]3CCC4=CC(=O)CC[C@]4(C)[C@H]3CC[C@]12C [progesterone] | – | minimal effects on GR function | 90 | no direct effects on ER were observed
